Here are results for six molecules from US12552798B2, “Substituted imidazolecarboxamide as Bruton's tyrosine kinase inhibitors” (Henan Zhiwei Biomedicine Co., Ltd., priority 2019, dated 2026).

One data set has as its target BTK (Homo sapiens (Human), UniProt Q06187). Nature of the data set: BTK kinase inhibitory assay (ELISA). The data set is classed as biochemical. The settings on record: 3 μmol/L ATP. Here is the method:
(§1) BTK, EGFR, BMX, or ITK Inhibitory Assay Procedure for BTK, BMX, EGFR and ITK Inhibitory Assay:
(§2) Kinase inhibitory activities of compounds were evaluated using the Enzyme-linked immunosorbent assay (ELISA). The kinase enzyme of BTK, BMX, EGFR and ITK were purchased from Carna Bioscience (Kobe, Japan). A total of 10 ng/mL antiphosphotyrosine (PY713) antibody (abcam, Cambridge Science Park, UK) was precoated in 96-well ELISA plates. The kinase enzymes in each reaction well were set to BTK (101.25 ng/mL), BMX (90 ng/mL), EGFR (90 ng/mL) or ITK (120 ng/mL) and incubated with indicated compounds in 1× reaction buffer (50 mmol/L HEPES pH 7.4, 20 mmol/L MgCl2, 0.1 mmol/L MnCl2, 1 mmol/L DTT) containing 20 μmol/L (the final concentration of substrate in ITK reaction was 30 μmol/L) substrate (NH2-ETVYSEVRK-biotin) at 25° C. for 1 h. Then, a total of 3 μmol/L ATP was added and the reaction was continued for 2 hrs. The products of reaction were transferred into 96-well ELISA plates containing antibody and incubated at 25° C. for 30 min. After incubation, the wells were washed with PBS and then incubated with horseradish peroxidase […]-conjugated streptavidin. The wells were visualized using 3,3′,5,5′-tetramethylbenzidine (TMB), and chromogenic reaction was ended with 2 mol/L H2SO4, the absorbance was read with a multimode plate reader (PerkinElmer, USA) at 450 nm. IC50 values and curve fits were obtained using Prism (GraphPad Software).

The next data set has as its target BMX (Homo sapiens (Human), UniProt P51813). Briefly: BMX kinase inhibitory assay (ELISA). It is filed as biochemical. The settings on record: for Selectivity Ratio (BTK and BMX): BMX IC50 relative to BTK IC50; for IC50: ELISA, 3 μmol/L ATP. As to the method: as §1, §2
A further data set concerns the target EGFR (Homo sapiens (Human), UniProt P00533). Briefly: EGFR kinase inhibitory assay (ELISA). The data set is classed as biochemical. To be noted: for Selectivity Ratio (BTK and EGFR): EGFR IC50 relative to BTK IC50; for IC50: ELISA, 3 μmol/L ATP. Here is the method:
as §1, §2
In general terms: In an ELISA, binding on a coated surface is turned into a signal by an enzyme label.

Another data set concerns the target ITK (Homo sapiens (Human), UniProt Q08881). Nature of the data set: ITK kinase inhibitory assay (ELISA). The data set is classed as biochemical. The settings on record: for IC50: ELISA, 3 μmol/L ATP; for Selectivity Ratio (BTK and ITK): ITK IC50 relative to BTK IC50. As to the method: as §1, §2
The test system of another data set is TMD8. Briefly: Cell antiproliferative activity assay (CellTiter-Glo), TMD8. It is filed as cell-based. The settings on record: read-out: Cell Growth IC50 (nM) TMD8. Here is the method:
(§3) Cell Antiproliferative Activity Assay
(§4) Cell antiproliferative activity was evaluated by the CellTiter-Glo (Promega, USA) assay. Make 1000× compounds solution in DMSO, add 1 μl 1000× compounds to […] growth medium to make 20× compounds. Dilute cell suspensions in growth medium to desired density and 95 μl were taken to 96-well plate. Add 5 μl 20× compounds into 96-well plate according to the plate map. Final DMSO concentration in each well was 0.1%. Then the cell was incubated at 37° C., 5% CO2 for 72 hs. Equilibrate the assay plate to room temperature before measurement. Add 20 μl of CellTiter-Glo© Reagent into each well. Mix contents for 2 minutes on an orbital shaker to induce cell lysis. Incubate at room temperature for 10 minutes to stabilize luminescent signal. Record luminescence using EnVision Multilabel Reader (PerkinElmer). Cell viability (CV %) was calculated relative to vehicle (DMSO) treated control wells using following formula: Cell viability (%)=(RLU compound−RLU blank)/(RLU control−RLU blank)*100%. The IC50 values were calculated using GraphPad Prism 6.0 software, fitting to a 4-parameter equation to generate concentration response curves. All assays were conducted with three parallel samples and three repetitions.
Background: Cellular ATP, detected with luciferase, serves as a proxy for viable cell number.

Another data set relates to 293T. Briefly: Cell antiproliferative activity assay (CellTiter-Glo), 293T. It is filed as cell-based. To be noted: 72 hs, read-out: Cell Growth IC50 (nM) 293T. Here is the method:
as §3, §4

A short description of data set [1]: PK properties assay in SD rats. It is filed as in vivo. To be noted: rat, plasma. Here is the method: Six SD rats were divided into two groups, and compound was administered by gavage and tail vein injection. The intravenous injection group was administered 2 min, 5 min, 15 min, 30 min, 1 h, 2 h, 4 h, 6 h, 8 h, and 12 h after administration. 0.25 mL of blood samples were collected from the posterior orbital venous plexus at 5 min, 15 min, 30 min, 1 h, 2 h, 4 h, 6 h, 8 h, 12 h, and 24 h after administration. LC-MS/MS method was used to determine the concentration of compound in plasma samples from SD rats, and the pharmacokinetic parameters were calculated using WinNolin software.

The subject of a further data set is Ramos. Briefly: Cell antiproliferative activity assay (CellTiter-Glo), Ramos. The data set is classed as cell-based. To be noted: 72 hs, read-out: Cell Growth IC50 (nM) Ramos. Here is the method: as §3, §4
Another data set relates to MOLM-13. Nature of the data set: Cell antiproliferative activity assay (CellTiter-Glo), MOLM-13. To be noted: Homo sapiens; MOLM-13, 72 hs; read-out: Cell Growth IC50 (nM) MOLM-13. It is filed as cell-based. Here is the method:
as §3, §4

Like-named read-outs stand apart in the source and are kept apart here.

By IC50 is commonly meant the midpoint of a concentration-inhibition curve. As usually defined, the Vd is the apparent volume that relates the amount in the body to the concentration in plasma or blood. A higher Vd goes with wide distribution into tissue. As a reminder, the clearance is a measure of how efficiently the substance is removed, as volume per time. The low end stands for inefficient removal, the high end for efficient removal. A word on the half-life: it is the time needed for the level to fall by half in the phase considered. A higher half-life goes with slow decline. As a reminder, the AUC is the area under the concentration-time curve, a measure of exposure. One may read the Cmax as the maximum level reached in the sampled fluid or tissue. One may read the bioavailability as the share of a dose that reaches the circulation, judged against a reference dose that is usually intravenous. A higher bioavailability goes with good availability.

Sequence of ITK (Q08881 whole entry): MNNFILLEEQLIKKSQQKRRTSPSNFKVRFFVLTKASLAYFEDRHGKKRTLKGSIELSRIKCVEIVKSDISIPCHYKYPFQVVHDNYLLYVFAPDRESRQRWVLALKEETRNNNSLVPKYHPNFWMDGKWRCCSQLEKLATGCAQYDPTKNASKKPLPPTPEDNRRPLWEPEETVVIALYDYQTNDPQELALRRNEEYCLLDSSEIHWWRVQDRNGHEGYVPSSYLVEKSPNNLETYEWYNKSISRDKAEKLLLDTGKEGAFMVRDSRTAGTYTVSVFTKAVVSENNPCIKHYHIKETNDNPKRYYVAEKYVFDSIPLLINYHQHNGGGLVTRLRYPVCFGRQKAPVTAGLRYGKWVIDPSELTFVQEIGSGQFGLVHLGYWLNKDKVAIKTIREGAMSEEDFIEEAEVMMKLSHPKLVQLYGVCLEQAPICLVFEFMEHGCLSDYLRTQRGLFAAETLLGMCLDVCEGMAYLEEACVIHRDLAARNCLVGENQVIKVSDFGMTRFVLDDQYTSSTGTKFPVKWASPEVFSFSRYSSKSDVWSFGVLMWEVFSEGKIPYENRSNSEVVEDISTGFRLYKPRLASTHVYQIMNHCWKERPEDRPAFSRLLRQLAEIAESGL
Sequence of BTK (Q06187 whole entry): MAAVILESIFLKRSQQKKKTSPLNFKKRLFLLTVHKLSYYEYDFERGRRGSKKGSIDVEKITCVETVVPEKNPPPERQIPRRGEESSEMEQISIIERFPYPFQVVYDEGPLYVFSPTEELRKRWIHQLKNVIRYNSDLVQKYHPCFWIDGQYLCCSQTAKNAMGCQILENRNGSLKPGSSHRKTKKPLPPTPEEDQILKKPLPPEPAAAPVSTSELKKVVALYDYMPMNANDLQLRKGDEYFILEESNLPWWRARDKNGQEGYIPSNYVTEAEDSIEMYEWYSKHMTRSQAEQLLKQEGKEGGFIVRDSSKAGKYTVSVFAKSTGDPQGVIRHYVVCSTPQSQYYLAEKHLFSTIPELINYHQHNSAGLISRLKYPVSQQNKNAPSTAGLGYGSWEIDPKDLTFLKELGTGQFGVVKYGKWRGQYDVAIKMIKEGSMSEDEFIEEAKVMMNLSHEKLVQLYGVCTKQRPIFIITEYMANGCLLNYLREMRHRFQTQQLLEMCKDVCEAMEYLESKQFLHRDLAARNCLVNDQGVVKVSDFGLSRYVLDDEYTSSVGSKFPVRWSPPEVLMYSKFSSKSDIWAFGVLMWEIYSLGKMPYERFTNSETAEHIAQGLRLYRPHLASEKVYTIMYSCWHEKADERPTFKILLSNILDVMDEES
Sequence of BMX (P51813 whole entry): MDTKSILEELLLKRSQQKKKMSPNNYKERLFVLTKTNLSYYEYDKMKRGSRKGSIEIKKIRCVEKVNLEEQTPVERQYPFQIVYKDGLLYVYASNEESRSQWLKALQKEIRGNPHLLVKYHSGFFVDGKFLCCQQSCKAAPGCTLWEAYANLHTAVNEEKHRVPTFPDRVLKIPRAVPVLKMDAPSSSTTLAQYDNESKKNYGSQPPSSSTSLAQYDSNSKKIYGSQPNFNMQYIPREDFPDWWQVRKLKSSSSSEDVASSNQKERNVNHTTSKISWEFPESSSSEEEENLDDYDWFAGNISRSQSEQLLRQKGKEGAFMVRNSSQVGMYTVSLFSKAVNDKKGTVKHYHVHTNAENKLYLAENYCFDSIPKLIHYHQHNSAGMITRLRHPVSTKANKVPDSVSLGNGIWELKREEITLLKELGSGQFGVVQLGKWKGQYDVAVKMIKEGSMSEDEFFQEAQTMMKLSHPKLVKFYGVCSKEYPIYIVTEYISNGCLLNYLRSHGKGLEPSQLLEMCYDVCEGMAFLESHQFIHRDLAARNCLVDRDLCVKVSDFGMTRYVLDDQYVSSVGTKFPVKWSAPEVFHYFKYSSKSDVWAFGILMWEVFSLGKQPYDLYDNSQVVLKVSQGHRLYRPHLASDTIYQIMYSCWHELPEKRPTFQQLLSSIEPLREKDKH
Sequence of EGFR (P00533 25-1210): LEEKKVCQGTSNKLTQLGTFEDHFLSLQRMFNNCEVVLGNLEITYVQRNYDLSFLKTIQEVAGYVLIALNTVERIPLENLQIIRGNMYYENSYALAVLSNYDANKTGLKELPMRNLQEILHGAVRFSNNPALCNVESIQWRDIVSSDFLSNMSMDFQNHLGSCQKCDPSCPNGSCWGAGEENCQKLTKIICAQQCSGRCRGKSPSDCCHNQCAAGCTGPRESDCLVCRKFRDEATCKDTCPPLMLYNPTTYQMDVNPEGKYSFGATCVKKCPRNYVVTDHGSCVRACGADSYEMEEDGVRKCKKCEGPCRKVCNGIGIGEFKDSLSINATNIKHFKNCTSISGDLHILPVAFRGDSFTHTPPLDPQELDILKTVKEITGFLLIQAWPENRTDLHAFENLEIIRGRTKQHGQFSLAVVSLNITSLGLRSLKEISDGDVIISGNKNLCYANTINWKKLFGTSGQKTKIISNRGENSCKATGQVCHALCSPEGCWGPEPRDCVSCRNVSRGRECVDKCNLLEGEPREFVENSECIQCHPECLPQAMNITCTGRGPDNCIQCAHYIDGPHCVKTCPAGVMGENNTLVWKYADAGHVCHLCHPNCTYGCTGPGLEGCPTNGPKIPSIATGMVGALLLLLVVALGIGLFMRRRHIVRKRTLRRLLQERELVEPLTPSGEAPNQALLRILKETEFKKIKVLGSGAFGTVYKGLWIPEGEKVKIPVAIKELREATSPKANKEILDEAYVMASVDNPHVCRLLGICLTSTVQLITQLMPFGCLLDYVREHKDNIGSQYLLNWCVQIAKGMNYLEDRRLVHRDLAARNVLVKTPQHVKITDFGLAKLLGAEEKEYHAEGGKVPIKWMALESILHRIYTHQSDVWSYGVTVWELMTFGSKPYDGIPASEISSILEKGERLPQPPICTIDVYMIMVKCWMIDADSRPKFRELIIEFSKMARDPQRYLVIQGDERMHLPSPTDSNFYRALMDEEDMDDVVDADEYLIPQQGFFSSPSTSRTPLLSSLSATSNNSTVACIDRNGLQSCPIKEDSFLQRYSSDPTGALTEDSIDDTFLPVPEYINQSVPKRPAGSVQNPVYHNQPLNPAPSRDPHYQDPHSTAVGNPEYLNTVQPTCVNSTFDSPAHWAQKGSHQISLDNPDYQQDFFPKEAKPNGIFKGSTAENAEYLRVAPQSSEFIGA

`C=CC(=O)N1CCC(C2CCNn3c2nc(-c2ccc(Oc4ccccc4)cc2)c3C(N)=O)CC1` (single isomer, unassigned) [1a (peak 1)] showed a half-inhibitory concentration (IC50) on BTK of 2.6 nM. For the same molecule, at BMX, the “Selectivity Ratio (BTK and BMX)” value was 5.88; the IC50 came out at 15.3 nM. In addition, at EGFR, the “Selectivity Ratio (BTK and EGFR)” value was 2.00; half-maximal inhibition (IC50) was put at 5.2 nM. In addition, on ITK, the 50% inhibitory concentration (IC50) was found to be 483 nM; the “Selectivity Ratio (BTK and ITK)” value is 185.6. In the data set with TMD8 (TMD8, 72 hs), the concentration for half-maximal inhibition (IC50) is 5.4 nM. In addition, in the data set with 293T (Homo sapiens, HEK-293T), the IC50 stood at 8450 nM. In [1] (iv 5 mg/kg), this molecule showed a Vd of 0.959 L/kg, a clearance of 27 mL/min/kg and a half-life of 24.6 min. In addition, in data set [1] (po 5 mg/kg), the exposure (AUC) was found to be 3430 ng·h/mL, the peak concentration (Cmax) came to 923 ng/mL, the bioavailability is 52.9% and the half-life was 84.6 min.

In turn, `NC(=O)c1c(-c2ccc(Oc3ccccc3)cc2)nc2n1NCCC2C1CCN(C(=O)/C=C/C(F)(F)F)CC1` (single isomer, unassigned) [10a (peak 1)] returned an IC50 on BTK of 6.7 nM. Further, on BMX, the “Selectivity Ratio (BTK and BMX)” value is listed as 3.12; it took 20.9 nM to reach half-maximal inhibition (IC50). On EGFR, the “Selectivity Ratio (BTK and EGFR)” value was determined as 365.37; 2450 nM corresponded to half-maximal inhibition (IC50). Besides, on ITK, half-maximal inhibition (IC50) required 2020 nM; the “Selectivity Ratio (BTK and ITK)” value is reported as 301.5. Moreover, in the data set on TMD8 (TMD8, 72 hs), the concentration for half-maximal inhibition (IC50) was found to be 16.5 nM. The IC50 in the data set on Ramos was found to be 1270 nM. In addition, the IC50 in the data set with MOLM-13 was found to be 3150 nM. Moreover, the IC50 in the data set with 293T (Homo sapiens, HEK-293T) is 1010 nM. In [1] (iv 5 mg/kg), this molecule showed a Vd of 1.6 L/kg, a clearance of 59.8 mL/min/kg and a half-life of 18.6 min. In data set [1] (po 5 mg/kg), the AUC stood at 1390 ng·h/mL, the maximum concentration (Cmax) turned out to be 703 ng/mL, the bioavailability came out at 47.2% and the half-life is 87 min.

As to `NC(=O)c1c(-c2ccc(Oc3ccccc3)cc2)nc2n1NCCC2C1CCN(C(=O)/C=C/C(F)(F)F)CC1` (single isomer, unassigned) [10b (peak 2)], the IC50 was 61.8 nM on BTK; 144 nM against BMX; 39500 nM against EGFR; more than 30000 nM against ITK; 257 nM with TMD8 (TMD8, 72 hs); 6440 nM in the data set on Ramos. Further, the IC50 in the data set with 293T came to 1910 nM. Also, the “Selectivity Ratio (BTK and BMX)” value at BMX stood at 2.32. Moreover, the “Selectivity Ratio (BTK and EGFR)” value at EGFR was found to be 638.75. For the same molecule, the “Selectivity Ratio (BTK and ITK)” value on ITK is more than 485.4.

Regarding `NC(=O)c1c(-c2ccc(Oc3ccccc3)cc2)nc2n1NCCC2C1CCN(C(=O)/C=C/C(F)(F)F)CC1` (centres unmarked) [Example 10, 2-(4-Phenoxy-phenyl)-8-[1-(4,4,4-trifluoro-but-2-enoyl)-piperidin-4-yl]-5,6,7,8-tetrahydro-imidazo[1,2-b]pyridazine-3-carboxamide], the concentration for half-maximal inhibition (IC50) against BTK was determined as 8.2 nM; against BMX, 49.5 nM; against EGFR it was 1930 nM; on ITK, 10800 nM; in the data set on TMD8 (Homo sapiens, TMD8, TMD8, 72 hs), 51.6 nM; with Ramos (Homo sapiens), 2760 nM. For the same molecule, the concentration for half-maximal inhibition (IC50) in the data set with 293T (Homo sapiens, HEK-293T) was found to be 45300 nM. Besides, on BMX, the “Selectivity Ratio (BTK and BMX)” value is given as 6.04. Besides, the “Selectivity Ratio (BTK and EGFR)” value on EGFR came out at 235.36. Moreover, the “Selectivity Ratio (BTK and ITK)” value on ITK was 1314.

In the case of `C#CC(=O)N1CCC(C2CCNn3c2nc(-c2ccc(Oc4ccccc4)cc2)c3C(N)=O)CC1` (centres unmarked) [Example 11, 2-(4-phenoxyphenyl)-8-(1-propioloylpiperidin-4-yl)-5,6,7,8-tetrahydroimidazo[1,2-b]pyridazine-3-carboxamide], the concentration for half-maximal inhibition (IC50) was determined as 8.2 nM at BTK; 22.8 nM against BMX; 28.1 nM against EGFR; 225 nM at ITK; 725 nM in the data set with Ramos (Homo sapiens); 1100 nM with MOLM-13. Further, the “Selectivity Ratio (BTK and BMX)” value on BMX was 2.78. On EGFR, the “Selectivity Ratio (BTK and EGFR)” value came out at 3.43. For the same molecule, the “Selectivity Ratio (BTK and ITK)” value at ITK is 27.40.

For `NC(=O)c1c(-c2ccc(Oc3ccccc3)cc2)nc2n1NCCC2C1CN(C(=O)/C=C/C(F)(F)F)C1` (centres unmarked) [Example 20, (E)-2-(4-phenoxyphenyl)-8-(1-(4,4,4-trifluorobut-2-enoyl)azetidin-3-yl)-5,6,7,8-tetrahydroimidazo[1,2-b]pyridazine-3-carboxamide], the “Selectivity Ratio (BTK and BMX)” value at BMX is reported as 8.79. The “Selectivity Ratio (BTK and EGFR)” value at EGFR turned out to be 405.5. Besides, the “Selectivity Ratio (BTK and ITK)” value on ITK came out at 1080.6. For the same molecule, the IC50 in the data set with Ramos (Homo sapiens) is 294 nM; in the data set on MOLM-13, 1360 nM.
